In patent US7728131B2, “Amide derivative and medicine” (Nippon Shinyaku Co., Ltd., priority 2003, dated 2010):

Columns and labels:
[1] = test system: K562 cells; test: Cell growth inhibitory effect, K562 cells (Cell counting Kit-8, 72 hours); details: for IC50: Homo sapiens, K562, 72 h, read-out: K562 cells (IC50 value: μM); for Ratio (U937 cells/K562 cells): IC50 U937 cells / IC50 K562 cells;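 on all read-outs here: Read-out is formazan absorbance at 450 nm from WST-8 reduction after a 3 h color reaction, with K562 and U937 cells grown in 96-well plates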
Method: of Cell counting Kit-8 (5 mmol/l WST-8, 0.2 mmol/1 1-Methoxy PMS, 150 mmol/l NaCl) (manufactured by Dojindo) was added to each well. After reaction for color development in a CO2 incubator for 3 hours, an absorbance of formazan, generated by reduction of WST-8 was determined at 450 nm using Multi-level counter ARVOsx (manufactured by Wallac).
K562 cells and U937 cells (purchased from American Type Culture Collection) were cultured in a RPMI-1640 medium (manufactured by Sigma) containing 10% (v/v) fetal calf serum (FCS) (manufactures by Sigma) (RPMI-1640/FCS). K562 cells and U937 cells were seeded at a density of 5000 cells/100 μl/well and 4000 cells/100 μl/well in each of 96-hole-plate (manufactured by costar), respectively. The plate was incubated in a CO2 incubator overnight. […] The resulting solution was diluted 500 times in a RPMI-1640/FCS medium and then 100 μl of the diluent was added in a well. The plate was incubated in a CO2 incubator. After 72 hours, 20 μl

[2] = test system: U937 cells; test: Cell growth inhibitory effect, U937 cells (Cell counting Kit-8, 72 hours); type: cell-based; details: Homo sapiens, U-937, BCR-ABL negative U937 cells, WST-8 absorbance, continuation of Table 3, read-out: U937 cells (IC50 value: nμM)
Method: The plate was incubated in a CO2 incubator overnight. […] The plate was incubated in a CO2 incubator. After 72 hours, 20 μl

Structure (SMILES)	melting point	IC50 [1]	Ratio (U937 cells/K562 cells) [1]	IC50 [2]
CCN(CC)[C@H]1CCN(Cc2ccc(C(=O)Nc3ccc(C)c(Nc4nccc(-c5cncnc5)n4)c3)cc2C(F)(F)F)C1.Cl [Example 57, (−)-4-[(S)-3-(N,N-diethylamino)pyrrolidin-1-ylmethyl]-3-trifluoromethyl-N-{4-methyl-3-[4-(5-pyrimidinyl)pyrimidin-2-ylamino]phenyl}benzamide hydrochloride]	200 to 202 °C	0.0058 µM	966	5600 nM
Cc1ccc(NC(=O)c2ccc(CN3CC[C@H](N4CCCC4)C3)c(C(F)(F)F)c2)cc1Nc1nccc(-c2cncnc2)n1.Cl [Example 58, (−)-4-[(S)-3-(1-pyrrolidinyl)pyrrolidin-1-ylmethyl]-3-trifluoromethyl-N-{4-methyl-3-[4-(5-pyrimidinyl)pyrimidin-2-ylamino]phenyl}benzamide hydrochloride]	168 to 171 °C	0.0047 µM	2000	9400 nM
Cc1ccc(NC(=O)c2ccc(CN3C[C@@H](N(C)C)C[C@H]3C)c(C(F)(F)F)c2)cc1Nc1nccc(-c2cncnc2)n1.Cl [Example 60, (−)-4-[(2R,4S)-4-(dimethylamino)-2-methylpyrrolidin-1-ylmethyl]-3-trifluoromethyl-N-{4-methyl-3-[4-(5-pyrimidinyl)pyrimidin-2-ylamino]phenyl}benzamide hydrochloride]	188 to 193 °C	0.005 µM	800	4000 nM
Cc1ccc(NC(=O)c2ccc(CN3CCC[C@H](N)C3)c(C(F)(F)F)c2)cc1Nc1nccc(-c2cncnc2)n1.Cl [Example 62, (+)-4-((S)-3-aminopiperidinomethyl)-3-trifluoromethyl-N-{4-methyl-3-[4-(5-pyrimidinyl)pyrimidin-2-ylamino]phenyl}benzamide hydrochloride]	193 to 199 °C	0.0014 µM	1143	1600 nM
Cc1ccc(NC(=O)c2ccc(CN3CCC[C@H](N(C)C)C3)c(C(F)(F)F)c2)cc1Nc1nccc(-c2cncnc2)n1.Cl [Example 64, (+)-4-[(S)-3-(dimethylamino)piperidinomethyl]-3-trifluoromethyl-N-{4-methyl-3-[4-(5-pyrimidinyl)pyrimidin-2-ylamino]phenyl}benzamide hydrochloride]	195 to 198 °C	0.0043 µM	860	3700 nM
Cc1ccc(NC(=O)c2ccc(CN3C[C@@H](C)[C@H](N(C)C)C3)c(C(F)(F)F)c2)cc1Nc1nccc(-c2cncnc2)n1.Cl [Example 67, (−)-4-[(3S,4R)-3-(dimethylamino)-4-methylpyrrolidin-1-ylmethyl]-3-trifluoromethyl-N-{4-methyl-3-[4-(5-pyrimidinyl)pyrimidin-2-ylamino]phenyl}benzamide hydrochloride]	164 to 174 °C (dec.)	0.0077 µM	844	6500 nM
Cc1ccc(NC(=O)c2ccc(CN3CCN(C)[C@@H](C)C3)c(C(F)(F)F)c2)cc1Nc1nccc(-c2cncnc2)n1.Cl [Example 69, (−)-4-((S)-3,4-dimethylpiperazin-1-ylmethyl)-3-trifluoromethyl-N-{4-methyl-3-[4-(5-pyrimidinyl)pyrimidin-2-ylamino]phenyl}benzamide hydrochloride]	187 to 193 °C	0.0022 µM	4545	10000 nM
Cc1ccc(NC(=O)c2ccc(CN3CCN(C)[C@H](C)C3)c(C(F)(F)F)c2)cc1Nc1nccc(-c2cncnc2)n1.Cl [Example 71, (+)-4-((R)-3,4-dimethylpiperazin-1-ylmethyl)-3-trifluoromethyl-N-{4-methyl-3-[4-(5-pyrimidinyl)pyrimidin-2-ylamino]phenyl}benzamide hydrochloride]	186 to 194 °C	0.0061 µM	1098	6700 nM
Cc1ccc(NC(=O)c2ccc(CN3CCN(Cc4oc(=O)oc4C)CC3)c(C(F)(F)F)c2)cc1Nc1nccc(-c2cncnc2)n1.Cl [Example 73, 4-{4-[(5-methyl-2-oxo-1,3-dioxol-4-yl)methyl]piperazin-1-ylmethyl}-3-trifluoromethyl-N-{4-methyl-3-[4-(5-pyrimidinyl)pyrimidin-2-ylamino]phenyl}benzamide hydrochloride]	218 to 226 °C (dec.)	0.0023 µM	4217	9700 nM
Cc1ccc(NC(=O)c2ccc(CN3CCN(C)CC3)c(C(F)(F)F)c2)cc1Nc1nc(-c2ccncc2)cs1.Cl [Example 75, 4-(4-methylpipiperazin-1-ylmethyl)-3-trifluoromethyl-N-{4-methyl-3-[4-(4-pyridyl)thiazol-2-ylamino]phenyl}benzamide hydrochloride]	186 to 188 °C	0.0059 µM	458	2700 nM
Cc1ccc(NC(=O)c2ccc(CN3CC(N(C)C)C3)c(C(F)(F)F)c2)cc1Nc1nccc(-c2cncnc2)n1.Cl [Example 77, 4-[3-(dimethylamino)azetidin-1-ylmethyl]-3-trifluoromethyl-N-{4-methyl-3-[4-(5-pyrimidinyl)pyrimidin-2-ylamino]phenyl}benzamide hydrochloride]	159 to 167 °C (dec.)	0.018 µM	>13699	> 100000 nM
Cc1ccc(NC(=O)c2ccc(CN3CC[C@H](CN(C)C)C3)c(C(F)(F)F)c2)cc1Nc1nccc(-c2cncnc2)n1.Cl [Example 79, 4-[(R)-3-(dimethylaminomethyl)pyrrolidin-1-ylmethyl]-3-trifluoromethyl-N-{4-methyl-3-[4-(5-pyrimidinyl)pyrimidin-2-ylamino]phenyl}benzamide hydrochloride]	114 to 122 °C (dec.)	0.0059 µM	4348	20000 nM
Cc1ccc(NC(=O)c2ccc(CN3CC[C@@H](CN(C)C)C3)c(C(F)(F)F)c2)cc1Nc1nccc(-c2cncnc2)n1.Cl [Example 81, 4-[(S)-3-(dimethylaminomethyl)pyrrolidin-1-ylmethyl]-3-trifluoromethyl-N-{4-methyl-3-[4-(5-pyrimidinyl)pyrimidin-2-ylamino]phenyl}benzamide hydrochloride]	114 to 122 °C (dec.)	0.0047 µM	>27778	> 100000 nM
